Experimental data reported in ChEMBL document CHEMBL4616702 (ACS Med Chem Lett, 2020).

Columns and labels:
[1] = Clearance in cynomolgus monkey at 1 mg/kg, iv; type: ADME, organism-based, Macaca fascicularis; settings: in vivo
[2] = biological target: T1, Nuclear receptor ROR-gamma (Mus musculus, UniProt P51450); experiment: Inverse agonist activity at RORgammat in mouse whole blood assessed as suppression of […] secretion; type: tissue-based
T1 sequence (P51450 whole entry): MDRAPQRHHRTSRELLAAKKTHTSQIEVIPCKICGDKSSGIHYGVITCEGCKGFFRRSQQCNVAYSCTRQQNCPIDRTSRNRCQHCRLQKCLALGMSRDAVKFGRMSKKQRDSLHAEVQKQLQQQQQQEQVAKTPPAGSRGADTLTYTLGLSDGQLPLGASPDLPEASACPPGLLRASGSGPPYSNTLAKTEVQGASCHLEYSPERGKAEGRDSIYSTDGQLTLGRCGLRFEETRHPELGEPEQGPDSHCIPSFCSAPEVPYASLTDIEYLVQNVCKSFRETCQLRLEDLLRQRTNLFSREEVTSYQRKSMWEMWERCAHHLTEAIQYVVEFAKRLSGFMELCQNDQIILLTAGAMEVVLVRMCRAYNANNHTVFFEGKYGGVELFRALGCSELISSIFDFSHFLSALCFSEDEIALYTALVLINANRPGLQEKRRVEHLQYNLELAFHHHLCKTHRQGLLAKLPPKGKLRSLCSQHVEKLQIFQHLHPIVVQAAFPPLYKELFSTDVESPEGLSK

[3] = AUC (0 to 24 hrs) in dog at 1 mg/kg, po; type: ADME, organism-based, Canis lupus familiaris; parameters: time < 24 hr, dose 1 mg/kg, route oral; settings: in vivo
Cytochrome P450 1A2 = biological target: T2, Cytochrome P450 1A2 (Homo sapiens, UniProt P05177); experiment: Inhibition of recombinant CYP1A2 (unknown origin); type: ADME
T2 sequence (P05177 whole entry): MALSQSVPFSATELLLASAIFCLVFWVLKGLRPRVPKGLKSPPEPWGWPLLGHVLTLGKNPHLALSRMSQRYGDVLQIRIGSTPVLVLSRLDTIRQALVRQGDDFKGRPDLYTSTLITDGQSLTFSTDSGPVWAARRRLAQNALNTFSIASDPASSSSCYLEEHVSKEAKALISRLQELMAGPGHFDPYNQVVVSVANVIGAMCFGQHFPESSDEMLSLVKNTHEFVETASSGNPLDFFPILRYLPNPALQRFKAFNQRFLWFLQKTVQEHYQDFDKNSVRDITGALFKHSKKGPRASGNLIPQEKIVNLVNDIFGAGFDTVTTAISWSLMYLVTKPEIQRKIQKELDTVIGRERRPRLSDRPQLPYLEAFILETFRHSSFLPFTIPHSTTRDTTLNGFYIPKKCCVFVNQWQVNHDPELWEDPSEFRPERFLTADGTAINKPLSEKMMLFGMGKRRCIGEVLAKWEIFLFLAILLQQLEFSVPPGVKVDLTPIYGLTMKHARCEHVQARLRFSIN

[4] = Cmax in mouse at 4 mg/kg, po; type: ADME, organism-based; parameters: dose 4 mg/kg, route oral; settings: in vivo
[5] = Clearance in dog at 1 mg/kg, iv; type: ADME, organism-based, Canis lupus familiaris; settings: in vivo
[6] = Permeability across apical to basolateral side in human Caco2 cells; type: ADME, cell-based; settings: Caco-2, read-out: permeability
[7] = Cmax in dog at 1 mg/kg, po; type: ADME, organism-based, Canis lupus familiaris; parameters: dose 1 mg/kg, route oral; settings: in vivo
[8] = Volume of distribution in steady state in rat at 2 mg/kg, iv; type: ADME, organism-based; settings: in vivo, read-out: Vdss
[9] = Oral bioavailability in mouse at 4 mg/kg; type: ADME, organism-based; settings: in vivo
[10] = Volume of distribution in steady state in mouse at 2 mg/kg, iv; type: ADME, organism-based; settings: in vivo, read-out: Vdss
[11] = Half life in human liver microsomes in presence of NADPH by LC/MS/MS method; type: ADME, Microsome
[12] = biological target: T3, Oxysterols receptor LXR-alpha (Homo sapiens, UniProt Q13133); experiment: Inverse agonist activity at LXRalpha (unknown origin)
T3 sequence (Q13133 whole entry): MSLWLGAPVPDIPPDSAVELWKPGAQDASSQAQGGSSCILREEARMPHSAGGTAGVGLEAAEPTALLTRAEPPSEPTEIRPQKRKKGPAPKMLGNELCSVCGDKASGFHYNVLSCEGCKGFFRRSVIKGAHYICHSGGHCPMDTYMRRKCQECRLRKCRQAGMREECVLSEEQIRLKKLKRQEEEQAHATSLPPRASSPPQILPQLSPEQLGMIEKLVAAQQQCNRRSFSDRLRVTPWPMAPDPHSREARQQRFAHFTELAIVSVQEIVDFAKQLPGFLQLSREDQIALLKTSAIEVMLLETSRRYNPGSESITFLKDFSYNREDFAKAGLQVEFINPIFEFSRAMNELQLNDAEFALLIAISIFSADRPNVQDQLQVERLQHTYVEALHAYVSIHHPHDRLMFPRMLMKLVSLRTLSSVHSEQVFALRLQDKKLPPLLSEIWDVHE

[13] = Clearance in mouse at 2 mg/kg, iv; type: ADME, organism-based; settings: in vivo
Cytochrome P450 3A4 = Cytochrome P450 3A4 (Homo sapiens, UniProt P08684); experiment: Inhibition of recombinant CYP3A4 (unknown origin); type: ADME
Cytochrome P450 3A4, sequence (P08684 whole entry): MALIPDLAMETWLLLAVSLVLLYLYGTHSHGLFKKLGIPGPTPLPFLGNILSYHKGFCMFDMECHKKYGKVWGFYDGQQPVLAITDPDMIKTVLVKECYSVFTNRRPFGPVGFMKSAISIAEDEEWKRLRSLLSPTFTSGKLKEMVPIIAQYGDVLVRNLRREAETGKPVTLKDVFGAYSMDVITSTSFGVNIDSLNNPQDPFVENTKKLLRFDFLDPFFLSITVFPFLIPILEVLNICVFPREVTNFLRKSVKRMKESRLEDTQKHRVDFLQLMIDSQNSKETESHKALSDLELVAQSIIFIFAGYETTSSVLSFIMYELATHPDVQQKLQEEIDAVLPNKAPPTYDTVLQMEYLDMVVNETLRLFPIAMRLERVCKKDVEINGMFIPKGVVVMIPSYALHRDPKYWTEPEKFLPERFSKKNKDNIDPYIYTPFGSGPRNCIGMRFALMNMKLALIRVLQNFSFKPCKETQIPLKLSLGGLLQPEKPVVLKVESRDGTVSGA

[14] = AUC (0 to 24 hrs) in cynomolgus monkey at 1 mg/kg, po; type: ADME, organism-based, Macaca fascicularis; parameters: dose 1 mg/kg, time < 24 hr, route oral; settings: in vivo
[15] = Cmax in cynomolgus monkey at 1 mg/kg, po; type: ADME, organism-based, Macaca fascicularis; parameters: dose 1 mg/kg, route oral; settings: in vivo
[16] = AUC (0 to 24 hrs) in Balb/c mouse at 10 mg/kg, po; type: ADME, organism-based; parameters: dose 10 mg/kg, time < 24 hr, route oral; settings: in vivo
[17] = biological target: T4, Oxysterols receptor LXR-beta (Homo sapiens, UniProt P55055); experiment: Inverse agonist activity at LXRbeta (unknown origin)
T4 sequence (P55055 whole entry): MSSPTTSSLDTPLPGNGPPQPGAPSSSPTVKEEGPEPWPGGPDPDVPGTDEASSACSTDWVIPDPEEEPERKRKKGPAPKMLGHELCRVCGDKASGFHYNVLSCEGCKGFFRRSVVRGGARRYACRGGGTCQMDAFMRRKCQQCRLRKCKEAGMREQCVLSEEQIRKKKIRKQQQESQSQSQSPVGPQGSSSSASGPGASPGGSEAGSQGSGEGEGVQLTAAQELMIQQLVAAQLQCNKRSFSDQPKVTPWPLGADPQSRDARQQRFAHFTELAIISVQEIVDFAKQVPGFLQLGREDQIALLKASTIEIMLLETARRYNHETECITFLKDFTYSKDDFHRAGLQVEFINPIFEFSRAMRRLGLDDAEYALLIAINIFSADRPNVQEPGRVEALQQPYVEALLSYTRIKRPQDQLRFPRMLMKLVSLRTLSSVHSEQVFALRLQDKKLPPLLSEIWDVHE

[18] = Cmax in rat at 4 mg/kg, po; type: ADME, organism-based; parameters: dose 4 mg/kg, route oral; settings: in vivo
[19] = Fraction unbound in human plasma; type: ADME, cell-free
[20] = Half life in mouse at 2 mg/kg, iv; type: ADME, organism-based; settings: in vivo
[21] = Half life in mouse liver microsomes in presence of NADPH by LC/MS/MS method; type: ADME, Microsome; settings: liver microsomes
[22] = Volume of distribution in steady state in dog at 1 mg/kg, iv; type: ADME, organism-based, Canis lupus familiaris; settings: in vivo, read-out: Vdss
[23] = AUC (0 to 24 hrs) in mouse at 4 mg/kg, po; type: ADME, organism-based; parameters: dose 4 mg/kg, time < 24 hr, route oral; settings: in vivo

clearance [1]: 1.1 mL/min/kg
EC50 [2]: 0.011 µM
AUC(0-t) at 24 h [3]: 120 µM·h
IC50 (Cytochrome P450 1A2): > 20 µM
Cmax [4]: 4.8 µM
clearance [5]: 0.18 mL/min/kg
Papp A→B [6]: 24 ×10⁻⁶ cm/s
Cmax [7]: 6.4 µM
Vd [8]: 1.2 L/kg
bioavailability [9]: 100%
Vd [10]: 1.9 L/kg
half-life [11]: > 2 h
EC50 [12]: > 7.5 µM
clearance [13]: 2.7 mL/min/kg
IC50 (Cytochrome P450 3A4): > 20 µM
AUC(0-t) at 24 h [14]: 35 µM·h
Cmax [15]: 3.1 µM
AUC(0-t) at 24 h [16]: 68 µM·h
EC50 [17]: > 7.5 µM
Cmax [18]: 4.7 µM
fraction unbound [19]: 0.012
half-life [20]: 7.7 h
half-life [21]: > 2 h
Vd [22]: 0.5 L/kg
AUC(0-t) at 24 h [23]: 37 µM·h
SMILES: C[C@H]1C[C@H](C(=O)O)CC[C@H]1C(=O)N1CC[C@@]2(S(=O)(=O)c3ccc(F)cc3)c3ccc(C(F)(C(F)(F)F)C(F)(F)F)cc3CC[C@@H]12 [BMS-986251]
